≈ marks a conversion by molar mass, not a printed value.
What was measured:
[1] = Binding affinity to decoding site rRNA of ribosome in TNT rabbit reticulocyte lysate using luciferase T7 control DNA plasmid assessed as inhibition of translation incubated for 60 mins by luciferase reporter gene based coupled transcription/translation assay; parameters: species or system Oryctolagus cuniculus
Bacillus spizizenii = assay: microbe, parasite or virus in culture; format: functional; conditions: ATCC 6633
Description: Antibacterial activity against Bacillus subtilis ATCC 6633 by double microdilution assay

Escherichia coli = assay: microbe, parasite or virus in culture; format: functional; conditions: R477/100
Description: Antibacterial activity against Escherichia coli R477/100 by double microdilution assay

[2] = Binding affinity to decoding site rRNA of ribosome in Escherichia coli using Escherichia coli S30 circular DNA assessed as inhibition of translation incubated for 60 mins by luciferase reporter gene based coupled transcription/translation assay
[3] = Binding affinity to decoding site rRNA of ribosome in Escherichia coli using Escherichia coli S30 circular DNA assessed as inhibition of translation incubated for 20 mins by luciferase reporter gene based coupled transcription/translation assay

| SMILES | IC50 [1] | MIC (Bacillus spizizenii) | MIC (Escherichia coli) | IC50 [2] | IC50 [3] |
| --- | --- | --- | --- | --- | --- |
| CN[C@@H]1[C@@H](O)[C@@H](O[C@@H]2[C@@H](O)[C@H](O[C@H]3O[C@H](CN)CC[C@H]3N)[C@@H](N)C[C@H]2N)OC[C@]1(C)O | 62 µM | < 0.75 µM |  |  |  |
| NC[C@H]1O[C@@H](O[C@H]2[C@H](O)[C@@H](N)C[C@@H](N)[C@@H]2O[C@H]2O[C@H]([C@H](O)CO)[C@@H](O)[C@H](O)[C@H]2N)[C@H](O)[C@@H]1O | 7.5 µM | 34 µM (≈ 16.5 µg/mL) | > 273 µM | 0.7 µM |  |
| N[C@H]1[C@@H](O[C@@H]2[C@@H](O)[C@H](O)[C@@H](N)C[C@H]2N)O[C@H]([C@@H](O)CO)[C@@H](O)[C@@H]1O | 516 µM | > 375 µM | > 375 µM | 91.9 µM |  |
| N[C@H]1[C@@H](O[C@@H]2[C@@H](O)[C@H](O)[C@@H](N)C[C@H]2N)O[C@H]([C@H](O)CO)[C@@H](O)[C@@H]1O | 120 µM | 311 µM (≈ 110 µg/mL) | > 311 µM | 11 µM |  |
| C[C@@H](O)[C@H]1O[C@H](O[C@@H]2[C@@H](O)[C@H](O)[C@@H](N)C[C@H]2N)[C@H](N)[C@@H](O)[C@@H]1O | 347 µM |  |  | 6 µM |  |
| C[C@H](N)[C@H]1O[C@@H](O[C@H]2[C@H](O)[C@@H](N)C[C@@H](N)[C@@H]2O[C@H]2O[C@H]([C@H](O)CO)[C@@H](O)[C@H](O)[C@H]2N)[C@H](O)[C@@H]1O | 1.2 µM | 64 µM (≈ 31.9 µg/mL) | > 257 µM | 1.2 µM |  |
| C[C@H](N)[C@H]1O[C@@H](O[C@H]2[C@H](O)[C@@H](N)C[C@@H](N)[C@@H]2O[C@H]2O[C@H]([C@@H](C)O)[C@@H](O)[C@H](O)[C@H]2N)[C@H](O)[C@@H]1O | 1.5 µM | 156 µM (≈ 75.3 µg/mL) | 1270 µM (≈ 611 µg/mL) | 1.1 µM |  |
| CN[C@@H]1[C@@H](O)[C@@H](O[C@H]2[C@H](O)[C@@H](O[C@H]3O[C@H](C(C)O)[C@@H](O)[C@H](O)[C@H]3N)[C@H](N)C[C@@H]2N)OC[C@]1(C)O (some centres undefined) |  | < 1.25 µM | 9 µM (≈ 4.47 µg/mL) | 0.01 µM |  |
| N[C@H]1[C@@H](O[C@@H]2[C@@H](O)[C@H](O)[C@@H](N)C[C@H]2N)O[C@H](C(O)CO)[C@@H](O)[C@@H]1O (mixture of isomers) |  |  |  |  | 24 µM |
| N[C@H]1[C@@H](O[C@H]2[C@H](O)[C@@H](O)[C@H](N)C[C@@H]2N)O[C@H](CO)[C@@H](O)[C@@H]1O [PAROMAMINE] |  |  |  |  | 3.9 µM |
